Where two headings read alike, the source gives them in different places.
Target: T1, Akt1 (Homo sapiens, UniProt P31749, S473D)
T1 construct: The version of Akt used in these studies lacks the pleckstrin homology (PH) domain
Experiment: Akt1 kinase assay, fluorescence polarization (IMAP)
Format: biochemical
Experimental: The Akt1 kinase assay is based on the measurement of fluorescence polarization using IMAP technology (Molecular Devices Corporation #R8062). Two microliters of inhibitor compounds diluted to a concentration of 10 millimolar are added to column 2 of a polypropylene 96-well plate containing 98 microliters of 100% DMSO; the wells in columns 3-12 contain 60 microliters of 100% DMSO. The various test compounds are serially diluted 1:3 across the plate by pipetting 30 microliters of compounds into wells containing 60 microliters of 100% DMSO. Column 12 receives DMSO only and is used as a negative control for inhibition. The components of the wells are mixed and 15 microliters of each well are transferred to another 96-well plate already containing 60 microliters of reaction buffer (RB: 10 mM Tris-HCl, pH 7.5, 10 mM MgCl2, 0.1 mM EGTA, 0.01% Triton-X100 (Sigma #X-100), freshly added 1 mM DTT). After mixing, the […] reactions are assembled. First, five microliters of the above compound/reaction buffer mixture is transferred to the bottom of a 96-well black polystyrene reaction plate (Costar, #3694). Next, ten microliters of a solution containing 4 micromolar ATP and 40 nanomolar fluorescent-labeled Crosstide (Tamara-labeled […] peptide) are added. Then, 5 microliters (1.5 nanograms) of Akt protein in RB are added. The version of Akt used in these studies lacks the pleckstrin homology (PH) domain, and contains an aspartic acid residue in place of a serine residue in position 473 within the Akt1 hydrophobic motif. The Akt1 protein contains a polyhistidine tag at the amino terminus and is prephosphorylated on threonine at position 308 in order to activate latent kinase activity. Once the reaction components and inhibitors are assembled, the plates are gently tapped, covered with foil, and then incubated at ambient temperature for 30 minutes. IMAP beads (Molecular Devices) are then added (60 microliters of a 1:400 dilution of beads in RB). Plates are read on a Victor Plate Reader with the following settings: CW lamp filter: 544 nm, emission filter: 615 nm. Control values from wells lacking Akt protein are subtracted from the gross readings, and IC50 values are calculated using XLDA.

[1] = Table 4, read-out: Avg Akt kinase, μM (50% inhibition)
[2] = Table 1, concentration bins, read-out: Concentration Range at which exemplary compounds of formula I inhibit Akt kinase activity
[3] = average Akt kinase activity (IC50), read-out: Avg Akt kinase, μM (50% inhibition)

T1 sequence (P31749 118-480 S473D limits assumed, species assumed): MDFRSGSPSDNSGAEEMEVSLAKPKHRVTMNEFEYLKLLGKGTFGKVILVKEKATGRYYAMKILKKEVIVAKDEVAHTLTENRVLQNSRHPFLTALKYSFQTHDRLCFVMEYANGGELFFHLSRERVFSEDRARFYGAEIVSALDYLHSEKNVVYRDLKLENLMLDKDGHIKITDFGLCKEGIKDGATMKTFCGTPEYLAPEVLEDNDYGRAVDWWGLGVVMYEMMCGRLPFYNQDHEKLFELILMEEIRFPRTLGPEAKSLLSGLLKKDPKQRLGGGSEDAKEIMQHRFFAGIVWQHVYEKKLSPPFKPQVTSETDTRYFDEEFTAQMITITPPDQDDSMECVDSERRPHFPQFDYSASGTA

Row | IC50 [1] | IC50 [2] | IC50 [3] | SMILES
1 | 0.0641 µM | 0.0101 to 0.1 µM |  | N#Cc1c[nH]c2ncnc(N3CCC(N)(COc4cccc(C(F)(F)F)c4)C3)c12 (centres unmarked) [Example 63, 4-(3-amino-3-{[3-(trifluoromethyl)phenoxy]methyl}pyrrolidin-1-yl)-7H-pyrrolo[2,3-d]pyrimidine-5-carbonitrile]
2 | 0.0215 µM | 0.0101 to 0.1 µM |  | CCc1c[nH]c2ncnc(N3CCC(N)(COc4cccc(C(F)(F)F)c4)C3)c12 (centres unmarked) [Example 64]
3 | 0.0948 µM | 0.0101 to 0.1 µM |  | CCc1c[nH]c2ncnc(N3CCC(N)(COc4cccc(C)c4)C3)c12 (centres unmarked) [Example 65, 1-(5-ethyl-7H-pyrrolo[2,3-d]pyrimidin-4-yl)-3-[(3-methylphenoxy)methyl]pyrrolidin-3-amine]
4 |  | 0.00025 to 0.0025 µM | 0.000269 µM | CCc1c[nH]c2ncnc(N3CC[C@](N)(CNC(=O)c4ccc(F)cc4F)C3)c12 [Example 73, N-{[(3S)-3-amino-1-(5-ethyl-7H-pyrrolo[2,3-d]pyrimidin-4-yl)pyrrolidin-3-yl]methyl}-2,4-difluorobenzamide]
5 |  | 0.0101 to 0.1 µM | 0.0114 µM | Cc1c[nH]c2ncnc(N3CC[C@](N)(CNC(=O)c4ccc(Cl)cc4)C3)c12 [Example 74, (S)—N-((3-amino-1-(5-methyl-7H-pyrrolo[2,3-d]pyrimidin-4-yl)pyrrolidin-3-yl)methyl)-4-chlorobenzamide]
6 |  | 0.101 to 10 µM | 0.185 µM | Cc1cccc(NC(=O)NCC2(N)CCN(c3ncnc4[nH]cc(C)c34)C2)c1C (centres unmarked) [Example 75, 1-{[3-amino-1-(5-methyl-7H-pyrrolo[2,3-d]pyrimidin-4-yl)pyrrolidin-3-yl]methyl}-3-(2,3-dimethylphenyl)urea]
7 |  | 0.101 to 10 µM | 0.523 µM | COCCN(CC1(N)CCN(c2ncnc3[nH]cc(C)c23)C1)C(=O)Nc1ccccc1 (centres unmarked) [Example 76, 1-{[3-amino-1-(5-methyl-7H-pyrrolo[2,3-d]pyrimidin-4-yl)pyrrolidin-3-yl]methyl}-1-(2-methoxyethyl)-3-phenylurea]
8 |  | 0.101 to 10 µM | 0.177 µM | Cc1c[nH]c2ncnc(N3CCC(N)(CNS(=O)(=O)c4ccccc4)C3)c12 (centres unmarked) [Example 77, N-{[3-amino-1-(5-methyl-7H-pyrrolo[2,3-d]pyrimidin-4-yl)pyrrolidin-3-yl]methyl}benzenesulfonamide]
9 |  | 0.00251 to 0.01 µM | 0.00424 µM | N[C@]1(CNC(=O)c2ccccc2F)CCN(c2ncnc3[nH]cc(Cl)c23)C1 [Example 80, N-{[(3S)-3-amino-1-(5-chloro-7H-pyrrolo[2,3-d]pyrimidin-4-yl)pyrrolidin-3-yl]methyl}-2-fluorobenzamide]
10 |  | 0.00251 to 0.01 µM | 0.00346 µM | N[C@]1(CNC(=O)c2cccc(F)c2F)CCN(c2ncnc3[nH]cc(Cl)c23)C1 [Example 81, N-{[(3S)-3-amino-1-(5-chloro-7H-pyrrolo[2,3-d]pyrimidin-4-yl)pyrrolidin-3-yl]methyl}-2,3-difluorobenzamide]
11 |  | 0.00025 to 0.0025 µM | 0.00163 µM | N[C@]1(CNC(=O)c2ccc(F)cc2F)CCN(c2ncnc3[nH]cc(Cl)c23)C1 [Example 82, N-{[(3S)-3-amino-1-(5-chloro-7H-pyrrolo[2,3-d]pyrimidin-4-yl)pyrrolidin-3-yl]methyl}-2,4-difluorobenzamide]
12 |  | 0.0101 to 0.1 µM | 0.0175 µM | N#Cc1c[nH]c2ncnc(N3CC[C@](N)(CNC(=O)c4ccc(Cl)cc4)C3)c12 [Example 86]
13 |  | 0.00251 to 0.01 µM | 0.00758 µM | Cc1c[nH]c2ncnc(N3CC[C@](N)(CNC(=O)c4cccc(F)c4F)C3)c12 [Example 87]
14 |  | 0.00025 to 0.0025 µM | 0.0018 µM | CCc1c[nH]c2ncnc(N3CC[C@](N)(CNC(=O)c4ccc(Cl)cc4)C3)c12 [Example 88]
15 |  | 0.00251 to 0.01 µM | 0.00278 µM | CCc1c[nH]c2ncnc(N3CC[C@](N)(CNC(=O)c4cccc(F)c4F)C3)c12 [Example 89]
16 |  | 0.00251 to 0.01 µM | 0.00392 µM | CCc1c[nH]c2ncnc(N3CC[C@@](N)(CNC(=O)c4cc(C)on4)C3)c12 [Example 91]
17 |  | 0.00025 to 0.0025 µM | 0.00191 µM | CCc1c[nH]c2ncnc(N3CC[C@](N)(CNC(=O)c4ccc(F)cc4)C3)c12 [Example 93]
18 |  | 0.00251 to 0.01 µM | 0.00923 µM | N#Cc1c[nH]c2ncnc(N3CC[C@](N)(CNC(=O)c4ccc(F)cc4)C3)c12 [Example 94]
19 |  | 0.00251 to 0.01 µM | 0.00433 µM | CCCc1c[nH]c2ncnc(N3CC[C@@](N)(CNC(=O)c4cc(C)on4)C3)c12 [Example 95, N-{[(3R)-3-amino-1-(5-propyl-7H-pyrrolo[2,3-d]pyrimidin-4-yl)pyrrolidin-3-yl]methyl}-5-methylisoxazole-3-carboxamide]
20 |  | 0.00025 to 0.0025 µM | 0.000979 µM | Cc1c[nH]c2ncnc(N3CC[C@](N)(CNC(=O)c4ccc(F)cc4F)C3)c12 [Example 97, N-{[(3S)-3-amino-1-(5-methyl-7H-pyrrolo[2,3-d]pyrimidin-4-yl)pyrrolidin-3-yl]methyl}-2,4-difluorobenzamide]

The remaining lines, values behind:

Row | SMILES | IC50 [1] | IC50 [2] | IC50 [3]
21 | Cc1c[nH]c2ncnc(N3CC[C@@](N)(COc4cccc(C(F)(F)F)c4)C3)c12 [Example 62] | 2.69 µM |  | 
22 | Cc1c[nH]c2ncnc(N3CCC(N)(CSc4cccc(C(F)(F)F)c4)C3)c12 (centres unmarked) [Example 66, 1-(5-methyl-7H-pyrrolo[2,3-d]pyrimidin-4-yl)-3-((3-(trifluoromethyl)phenylthio)methyl) -pyrrolidin-3-amine] |  | 0.101 to 10 µM | 0.701 µM
23 | Cc1c[nH]c2ncnc(N3CCC(N)(CCc4cccc(C(F)(F)F)c4)C3)c12 (centres unmarked) [Example 67, 1-(5-methyl-7H-pyrrolo[2,3-d]pyrimidin-4-yl)-3-{2-[3-(trifluoromethyl) -phenyl]ethyl}pyrrolidin-3-amine] |  | 0.101 to 10 µM | 0.126 µM
24 | Cc1c[nH]c2ncnc(N3CCC(N)(CNC(=O)c4ccccc4)C3)c12 (centres unmarked) [Example 69, N-((3-amino-1-(5-methyl-7H-pyrrolo[2,3-d]pyrimidin-4-yl)pyrrolidin-3-yl)methyl)benzamide] |  | 0.0101 to 0.1 µM | 0.0623 µM
25 | N[C@]1(CNC(=O)c2ccc(Cl)cc2)CCN(c2ncnc3[nH]cc(Cl)c23)C1 [Example 70, N—(((S)-3-amino-1-(5-chloro-7H-pyrrolo[2,3-d]pyrimidinechlorobenzamide (70)-4-yl)pyrrolidin-3-yl)methyl)-4] |  | 0.00251 to 0.01 µM | 0.00544 µM
26 | Cc1c[nH]c2ncnc(N3CC[C@](N)(CNC(=O)c4ccccc4Cl)C3)c12 [Example 71, N—(((S)-3-amino-1-(5-methyl-7H-pyrrolo[2,3-d]pyrimidin-4-yl)pyrrolidin-3-yl)methyl)-2-chlorobenzamide] |  | 0.00251 to 0.01 µM | 0.00797 µM
27 | N[C@]1(CNC(=O)c2ccc(F)cc2)CCN(c2ncnc3[nH]cc(Cl)c23)C1 [Example 78, N-{[(3S)-3-amino-1-(5-chloro-7H-pyrrolo[2,3-d]pyrimidin-4-yl)pyrrolidin-3-yl]methyl}-4-fluorobenzamide] |  | 0.00251 to 0.01 µM | 0.00267 µM
28 | Cc1cc(C(=O)NC[C@]2(N)CCN(c3ncnc4[nH]cc(Cl)c34)C2)no1 [Example 79] |  | 0.00251 to 0.01 µM | 0.00377 µM
29 | N[C@]1(CNC(=O)c2ccc(Cl)c(F)c2)CCN(c2ncnc3[nH]cc(Cl)c23)C1 [Example 83, N-{[(3S)-3-amino-1-(5-chloro-7H-pyrrolo[2,3-d]pyrimidin-4-yl)pyrrolidin-3-yl]methyl}-4-chloro-3-fluorobenzamide] |  | 0.00251 to 0.01 µM | 0.00915 µM
30 | N[C@]1(CNC(=O)c2ccc(Cl)cc2F)CCN(c2ncnc3[nH]cc(Cl)c23)C1 [Example 84, N-{[(3S)-3-amino-1-(5-chloro-7H-pyrrolo[2,3-d]pyrimidin-4-yl)pyrrolidin-3-yl]methyl}-4-chloro-2-fluorobenzamide] |  | 0.0101 to 0.1 µM | 0.0111 µM
31 | N[C@]1(CNC(=O)c2ccccc2Cl)CCN(c2ncnc3[nH]cc(Cl)c23)C1 [Example 85, N-{[(3S)-3-amino-1-(5-chloro-7H-pyrrolo[2,3-d]pyrimidin-4-yl)pyrrolidin-3-yl]methyl}-2-chlorobenzamide] |  | 0.00251 to 0.01 µM | 0.00643 µM
32 | N#Cc1c[nH]c2ncnc(N3CC[C@](N)(CNC(=O)c4cccc(F)c4F)C3)c12 [Example 90] |  | 0.0101 to 0.1 µM | 0.0395 µM
33 | N#Cc1c[nH]c2ncnc(N3CC[C@](N)(CNC(=O)c4ccc(F)cc4F)C3)c12 [Example 96, N-{[(3S)-3-amino-1-(5-cyano-7H-pyrrolo[2,3-d]pyrimidin-4-yl)pyrrolidin-3-yl]methyl}-2,4-difluorobenzamide] |  | 0.00251 to 0.01 µM | 0.00771 µM
